Values of other authors in US20240182421A1, “SYNTHESIS OF ENDOCHIN-LIKE QUINOLONES” (Oregon Health & Science University, priority 2021, published 2024).
Entries after “also recorded” stand apart in the source; their conditions may differ.

Tests used:
[1] = system: apicomplexan parasites of importance to veterinary medicine
malaria = details: compared with ELQ-300
avian malaria = details: in vivo

Compound	activity against a range of apicomplexan parasites of importance to veterinary medicine [1]	antiparasitic activity / potency against Toxoplasma gondii (Toxoplasma gondii)	antiparasitic activity / potency against Babesia microti (Babesia microti)	antimalarial activity in vivo (malaria)	activity in the avian malaria model (avian malaria)
COc1cc2[nH]c(C)c(-c3ccc(Oc4ccc(OC(F)(F)F)cc4)cc3)c(=O)c2cc1Cl [ELQ-300, 6-Chloro-7-methoxy-2-methyl-3-(4-(4-(trifluoromethoxy)phenoxy)phenyl)quinolin-4(1H)-one]	active				
COc1cc2[nH]c(C)c(-c3ccc(Oc4ccc(OC(F)(F)F)cc4)cc3)c(=O)c2cc1F [ELQ-316, 6-Fluoro-7-methoxy-2-methyl-3-(4-(4-(trifluoromethoxy)phenoxy)phenyl)quinolin-4(1H)-one]	active	greatest potency; also recorded: superior antiparasitic activity	greatest potency; also recorded: superior antiparasitic activity	slightly less antimalarial activity than ELQ-300	
CCCCCCCc1c(C)[nH]c2cc(OC)ccc2c1=O [endochin]					high activity
